Test results taken from patent US20190344265A1, “Networked Cell Holder Chip” (priority 2018, published 2019).

Tested on: breast cancer cells
Assay: Cell protrusion length of breast cancer cells in the networked cell-holder chip (time course imaging)
Format: cell-based
From the text: To load the cells into the chip of the present invention, a medium containing suspended cells is dropped onto the surface of the well plate of a chip of the present invention via a multichannel pipette or liquid handling system. In some embodiments of the present invention, 20-ml of the medium is dropped onto a chip of the present invention having a width of 86 mm, a length of 128 mm, and height of 14 mm. The chip is loaded on one of the receptors 302 of the bucket rotor 300. The bucket rotor is spun by the centrifuge 304 to drive the cells into the microwells of the chip. […] Filter papers (e.g., manufactured by Whatman) are used to swipe away the unloaded cells. Finally, the cells are cultured at 37° C. in the chip 100 a humidified atmosphere with 5% CO2, to enable protrusions to extend in the microchannels. The cells are also stained (for example, with green fluorescent protein—GFP) to enhance visibility of the cells and protrusions. […] The loaded breast cancer cells in both chips were incubated overnight. In the chip that was to be treated with the drug, the medium was replaced by a fresh culture medium mixed with paclitaxel concentration of 0.5 μM, after the incubation period.

## CC(=O)O[C@H]1C(=O)[C@@]2(C)[C@H]([C@H](OC(=O)c3ccccc3)[C@]3(O)C[C@H](OC(=O)[C@H](O)[C@@H](NC(=O)c4ccccc4)c4ccccc4)C(C)=C1C3(C)C)[C@]1(OC(C)=O)CO[C@@H]1C[C@@H]2O [paclitaxel]
Breast cancer cells in chip, paclitaxel 0.5 μM
  time until effects of the drug on the cancer cells were clear: within one hour
Breast cancer cells incubated overnight in chip, then medium with paclitaxel 0.5 μM, sample of 51 cells (FIG. 29), untreated comparison 64 cells (FIG. 28)
  normalized length of cell protrusion over time: reduces the length of the protrusions
